Measured values published in patent publication US9732367B2, “Cell lines” (MEDIMMUNE LIMITED, priority 2012, dated 2017).
pEC50: −log10 of the molar value. Square brackets hold non-standard residues; d marks the D form. Peptide text beside a SMILES is read from it. * marks the point of attachment. Dolaproine = CO[C@@H]([C@@H]1CCCN1)[C@@H](C)C(=O)O; Dil = CC[C@H](C)[C@H](NC)[C@@H](CC(=O)O)OC; NMe2Val = CC(C)[C@@H](C(=O)*)N(C)C

What was measured:
HEK293 c18 cells = assay: MTS viability assay with nnAA titration in cells transfected with pylRS and tRNA; conditions: ALOC 5 mM to 0.08 mM, 5 days
Description: Finally, to determine whether amber suppression led to cytostatic effects, 1000 HEK293 c18 cells plates in a 96 well plate and transiently transfected with pCEP4-pylRS and pOriP-9×tRNA constructs. Cells were grown in DMEM-C medium containing a titration of nnAA (ALOC) starting with 5 mM to 0.08 mM. Cell viability was assayed at the time of the transfection, and after 5 days growth using an MTS colorimetric assays (FIG. 4D).

pylRS/tRNA pair = target: T1, pylRS/tRNA pair (Methanosarcina mazei, UniProt Q8PWY1); assay: GFP assay: translational testing of pyrrolysine analogs as nnAAs; assay type: cell-based; conditions: Formula V analogs, nnAA 2 mM, 2-3 days; for MFI: geometric mean
T1 construct: expressed in transfected cells; host or cells: HEK293 clone 3H7
Text: An in vitro cell based assay was developed to assess the compatibility of the pylRS/tRNA pair and the pyrrolysine analogs of the present invention (nnAAs) by and the efficiency of nnAAs integration into a target protein. For this, HEK293 cells stably expressing pylRS (3H7) were transiently transfected with plasmids for the expression of tRNApyl and a reporter construct encoding GFPY40 (containing amber codon in place of tyrosine at amino acid residue number 40 (where 1 is the initiator methionine)) using standard transfection protocols. Transfected cells were incubated with nnAAs at 2 mM for 2-3 days GFP production was analyzed qualitatively by visual inspection under the microscope. The GFP fluorescence was quantified by flow cytometry using an Accuri flow cytometer and the geometric mean of the fluorescent cells determined.
This cell based assay was used to determine whether the different nnAAs were suitable substrates for the pylRS and allowed its translation into a target protein. Cells expressing the PylRS/tRNApyl pair and containing a vector encoding the GFPY40 reporter gene were incubated in the presence of the nnAAs. nnAAs that are readily utilized by the PylRS/tRNApyl pair support the translation of the nnAA into the amber site of GFP and allow read-through of the gene producing full length GFP (fluorescent protein). The fluorescence intensity of the cells depends on the efficiency of nnAA incorporation. Thus, nnAAs that are poorly utilized produce weakly fluorescent or non-fluorescing cells. […] Furthermore, the relative expression levels in each sample was compared to those generated by substrates known to be efficiently utilized by pylRS.

SKBR3 = assay: In vitro cytotoxicity assay, SKBR3; assay type: cell-based
Description: (§1) The Her2 over expressing cell lines, SKBR3 and SKOV3 were compared to PC3, a cell line that expresses very low level of Her2.
(§2) The ADC's generated as described above were tested for cytotoxic activity in SKOV3 and a PC3 tumor cell lines which are standard target cells for testing the activity of anti Her2 antibodies and ADC cell lines. SKOV3 cells express high levels of Her2, while PC3 cells express Her2 at low level. […] The drug treated cells are incubated at 37 C for 3 days in 100 ul medium. 20 ul of Alamar Blue (Life Technologies) is added to each well and the cells incubated for 16-24 hours and an OD 450 nm determined for each well. The cytotoxic activity of the conjugates was calculated as the concentration of ADC to kill 50% of the tumor cells in vitro as described in Table 8.

SKOV3 = assay: In vitro cytotoxicity assay, SKOV3; assay type: cell-based, human
Description: (§3) The ADC's generated as described above were tested for cytotoxic activity in SKOV3 and HCC1954 and PC3 tumor cell lines which are standard target cells for testing the activity of anti Her2 antibodies and ADC cell lines. SKOV3 and HCC1954 express high levels of Her2, while PC3 expresses Her2 at low level: the cytotoxic activity was calculated as the concentration of ADC to kill 50% of the tumor cells in vitro as described in Table 5.
as §1, §2

HCC1954 = assay: In vitro cytotoxicity assay, HCC1954; assay type: cell-based
Description: as §3, §2

BT474 = assay: In vitro cytotoxicity assay, BT474; assay type: cell-based; conditions: Table 8, 3 days, Alamar Blue
[1] = Table 5, positional 4D5-AF ADCs

T1 sequence (Q8PWY1 whole entry): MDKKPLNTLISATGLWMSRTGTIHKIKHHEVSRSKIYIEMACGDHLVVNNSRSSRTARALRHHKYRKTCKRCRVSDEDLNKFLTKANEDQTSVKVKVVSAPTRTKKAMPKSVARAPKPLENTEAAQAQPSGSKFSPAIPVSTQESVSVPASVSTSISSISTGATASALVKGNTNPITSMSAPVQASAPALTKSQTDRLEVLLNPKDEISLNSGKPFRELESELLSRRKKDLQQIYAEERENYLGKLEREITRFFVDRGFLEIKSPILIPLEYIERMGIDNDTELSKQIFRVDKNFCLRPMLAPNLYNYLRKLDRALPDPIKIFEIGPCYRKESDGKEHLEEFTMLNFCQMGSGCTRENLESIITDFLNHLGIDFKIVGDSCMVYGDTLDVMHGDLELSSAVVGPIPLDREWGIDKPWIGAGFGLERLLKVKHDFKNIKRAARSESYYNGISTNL

Row | Compound | effect on cell viability/growth (HEK293 c18 cells) | Positive GFP (pylRS/tRNA pair) | MFI (pylRS/tRNA pair) | MFI (pylRS/tRNA pair; listed as V.3) | pEC50 (SKBR3; Table 6) | pEC50 (SKBR3; Table 8, 3 days, Alamar Blue) | pEC50 (SKOV3; [1]) | pEC50 (SKOV3; Table 6) | pEC50 (SKOV3; Table 8, 3 days, Alamar Blue) | pEC50 (HCC1954; [1]) | pEC50 (HCC1954; Table 8, 3 days, Alamar Blue) | pEC50 (BT474)
1 | C=CCOC(=O)NCCCC[C@H](N)C(=O)O [Formula V.3, (2S)-2-amino-6-{[(prop-2-en-1-yloxy)carbonyl]amino}hexanoic acid] | cytotstatic effect | Yes | 2,250,000 | 2250000 | – | – | – | – | – | – | – | –
2 | CC[C@H](C)[C@@H]([C@@H](CC(=O)N1CCC[C@H]1[C@H](OC)[C@@H](C)C(=O)N[C@@H](Cc1ccccc1)C(=O)O)OC)N(C)C(=O)[C@@H](NC(=O)[C@H](C(C)C)N(C)C)C(C)C [AF, Auristatin F] (NMe2Val-V[Dil][Dolaproine]F-OH) | – | – | – | – | 7.15 | 7.48 | 7.16 | 6.54 | 7.63 | 7.73 | 7.89 | 7.23
